According to patent US5763208A, “Oligonucleotides and their analogs capable of passive cell membrane permeation” (Gilead Sciences, Inc., priority 1996, dated 1998):
Where two headings read alike, the source gives them in different places.

Key:
[1] = cited from earlier work
[2] = system: most of the cell types tested
Method: Within 15 min after washing the dye away from the exterior of the cells, the intracellular pool of the dye is pumped out, either by an organic anion pump mechanism or by diffusion.
The cell staining assay utilized various cell lines and included P388D1 (mouse macrophage), HEPG2 (human liver), CV1 (monkey epithelial), ccd50sk (untransformed human fibroblast), Rat2 (rat fibroblast), MDCK (kidney cells), L6 (rat myoblast), L cells (mouse fibroblast), HeLa (human adenocarcinoma), skov3 (human ovarian adenocarcinoma), and skbr3 (human breast adenocarcinoma) cells. Other cell lines that were used included Jurkat (human T cell), H9 (human T cell), NIH3T3 (mouse fibroblast), HL60 (human T cell), and H4 (rat liver). All cell lines are commercially available from the American Type Culture Collection, Rockville, Md.
Cells were grown on 25 mm-#1 coverslips in media containing 25 mM HEPES, pH 7.3, (which helps maintain pH on the microscope) without phenol red (which can lead to high background fluorescence when working with living cells). Coverslips were used so that the high numerical aperture oil-immersion lenses on the microscope could be used. The coverslips were mounted onto "viewing chambers": 6-well petri dishes which have 22 mm holes drilled into the bottom. […]

[3] = pH dependence of fluorescence of fluorescein; format: physicochemical
Excerpt: A preferred fluor is fluorescein.

[4] = known values of standard compounds used for the standard curve (Veith et al.)

## Nc1ccccc1 [aniline]
[1]; [4]
  Log Poct: 0.9

## O=C1OC2(c3ccc(O)cc3Oc3cc(O)ccc32)c2ccccc21 [fluorescein]
[2]
  time in which the intracellular pool of the dye is pumped out: ≤ 15 min
[2]; not told
  cell permeation of dye: permeant to most of the cell types tested
[3]; pH 5.0
  net charge: net neutral charge
[3]; pH 5.0 vs pH 7.5
  fluorescence at pH 5.0 relative to pH 7.5: greater than an order of magnitude less fluorescent
[3]; pH 7.5
  net charge: net negative charge

## Nc1ccccc1[N+](=O)[O-] [o-nitroaniline]
[1]; [4]
  Log Poct: 1.44

## Nc1ccccc1O [2-aminophenol]
[1]; octanol/water
  Log Poct: 0.62

## Nc1cccc(O)c1 [3-aminophenol]
[1]; [4]
  Log Poct: 0.17
